According to US20190382827A1, “USE OF MICROBIAL METABOLITES FOR TREATING DISEASES” (Yeda Research and Development Co. Ltd., priority 2015, published 2019):

Legend:
NLRP6 inflammasome = assay: Colon explants cultured with metabolites (IL-18 ELISA, caspase-1 immunoblot, gene expression); type: cell-based, mouse; conditions: colon explants incubated for 24 hrs, compared with spermine
Procedure: Colons were excised and washed thoroughly with PBS, homogenized in RIPA buffer containing protease inhibitors, incubated for 20 min in 4° C. and centrifuged for 20 min, 14,000 rpm at 4° C. Samples were separated on 15% acrylamide gels and transferred onto nitrocellulose membranes. Western blot analysis was performed using anti-caspase 1 p20 polyclonal antibody (Adipogen, AG-20B-0042B-C100) and Goat anti mouse antibody (Jackson ImmunoResearch, 115-035-003). Band density was calculated using ImageJ software. Colon pieces, 0.5 cm long, from the proximal colon were removed, rinsed with PBS, and weighed. The tissue explants were cultured for 24 hrs in DMEM medium containing 10% FBS, L-glutamine, penicillin, and streptomycin at 37° C. Culture medium was collected, centrifuged and the resulting supernatant stored in aliquots at -20° C. Concentrations of IL-18 in the serum or culture supernatants were measured using ELISA. […] Samples were then washed and plates were incubated with anti-mouse IL-18-biotin antibody ([…]-6 MBL) for 1 hour and HRP-Avidin (BioLegend) for 1 hour before quantification. […] For AMP induction in-vitro, 3 μg IL-18 were added to colon explants for 7 hours, then the explants were maintained in RNAlater and RNA was extracted. Tissues were preserved in RNAlater solution (Ambion) and subsequently homogenized in Tri Reagent (Fox et al.). RNA was purified according to the manufacturer's instructions. Two microgram of total RNA was used to generate cDNA (HighCapacity cDNA Reverse Transcription kit; Applied Biosystems). RealTime-PCR was performed using gene-specific primer/probe sets (Applied Biosystems) and Kapa Probe Fast qPCR kit (Kapa Biosystems) on a Viia7 instrument (Applied Biosystems). PCR conditions were 95° C. for 20 s, followed by 40 cycles of 95° C. for 3 s and 60° C. for 30 s. Data were analyzed using the deltaCt method with hprt serving as the reference housekeeping gene.

DSS colitis = assay: DSS colitis; type: in vivo, mouse; conditions: Asc-/- mice, IL-18 i.p. prior to induction of DSS colitis
Procedure: (§1) For IL-18 rescue experiments, recombinant IL-18 (MBL, Cat#B004-2) was injected intraperitoneally at a concentration of 1 μg per mouse for 5 days, and not injected for 2 days prior to DSS treatment. IL-18 injection to Swiss Webster germ-free mice and Nlrp6^−/− mice was performed twice a day for 3 days, while the mice were kept sterile using a cage-autonomous system (Hecht et al., 2014).
Mice were treated with 1.5% (w/v) DSS (M.W.=36,000-50,000 Da; MP Biomedicals) in their drinking water for 7 days followed by regular access to water. The animals were weighed daily and monitored for signs of distress as well as rectal bleeding.
For DSS rescue experiments, mice were receiving taurine in the drinking water prior to DSS treatment in a concentration of 100 mg/ml for 14 days.
Colonoscopy was performed using a high-resolution mouse video endoscopic system (Carl Storz, Tuttlingen, Germany). The severity of colitis was blindly scored using MEICS (Murine Endoscopic Index of Colitis Severity), which is based on five parameters: granularity of mucosal surface; vascular pattern; translucency of the colon mucosa; visible fibrin; and stool consistency (Becker et al., 2006).
On the day of the assay, 4 kDa fluorescein isothiocyanate (FITC)-dextran was dissolved in phosphate buffered saline (PBS) to a concentration of 80 mg ml^−1. Mice were fasted for 4 hours prior to gavage with 150 μl dextran. Mice were anesthetized 3 hours following gavage and blood was collected, centrifuged at 1,000×g for 12 min at 4° C. Serum was collected and fluorescence was quantified at an excitation wavelength of 485 nm and 535 nm emission wavelength.
DNA was extracted from liver samples (using MoBio PowerSoil kit). DNA concentration was calculated using a standard curve of known DNA concentrations from E. coli K12. 16S qPCR using primers identifying different regions of the V6 16S gene was performed using Kappa SYBR fast mix.
Absolute number of bacteria in the samples was then approximated as DNA amount in a sample/DNA molecule mass of bacteria.

colonic AMPs [1] = assay: IL-18 added to germ-free colon explants, AMP induction in-vitro; type: cell-based, mouse; conditions: GF colon explants, sterile conditions
Procedure: Colon explants were incubated with 70 mM of taurine (Sigma Aldrich, T0625), histamine (Sigma Aldrich, H7125) or spermine (Sigma Aldrich, S3256) for 24 hours. For AMP induction in-vitro, 3 μg IL-18 were added to colon explants for 7 hours, then the explants were maintained in RNAlater and RNA was extracted.
(§2) Tissues were preserved in RNAlater solution (Ambion) and subsequently homogenized in Tri Reagent (Fox et al.). RNA was purified according to the manufacturer's instructions. Two microgram of total RNA was used to generate cDNA (HighCapacity cDNA Reverse Transcription kit; Applied Biosystems). RealTime-PCR was performed using gene-specific primer/probe sets (Applied Biosystems) and Kapa Probe Fast qPCR kit (Kapa Biosystems) on a Viia7 instrument (Applied Biosystems). PCR conditions were 95° C. for 20 s, followed by 40 cycles of 95° C. for 3 s and 60° C. for 30 s. Data were analyzed using the deltaCt method with hprt serving as the reference housekeeping gene.

colonic AMPs [2] = assay: In-vivo injection of recombinant IL-18, colonic IL-18 and AMP levels; set-up: species or system mouse
Procedure: as §1
Concentrations of IL-18 in the serum or culture supernatants were measured using ELISA. Plates were coated over night with IL-18 (MBL, B004-2), incubated for 4 hours with supernatant or serum. Samples were then washed and plates were incubated with anti-mouse IL-18-biotin antibody (D048-6 MBL) for 1 hour and HRP-Avidin (BioLegend) for 1 hour before quantification.
as §2

intestinal microbiota = assay: In-vivo injection of recombinant IL-18, 16S microbiota analysis; set-up: species or system mouse
Procedure: as §1
Frozen fecal samples were processed for DNA isolation using the MoBio PowerSoil kit according to the manufacturer's instructions. For the 16S rRNA gene PCR amplification, ing of the purified fecal DNA was used for PCR amplification. Amplicons spanning the variable region 1/2 (V1/2) of the 16S rRNA gene were generated by using the following barcoded primers: Fwd 5′-XXXXXXXXAGAGTTTGATCCTGGCTCAG-3′ (SEQ ID NO: 1), Rev 5′-TGCTGCCTCCCGTAGGAGT-3′ (SEQ ID NO: 2), where X represents a barcode base. The reactions were subsequently pooled and cleaned (PCR clean kit, Promega), and the PCR products were then sequenced on an Illumina MiSeq in 500 bp paired-end method. The reads were then processed using the QIIME (Quantitative Insights Into Microbial Ecology, www(dot)qiime(dot)org) analysis pipeline as described (Caporaso et al., 2010; Elinav et al., 2011). In brief, fasta quality files and a mapping file indicating the barcode sequence corresponding to each sample were used as inputs, reads were split by samples according to the barcode, taxonomical classification was performed using the RDP-classifier, and an OTU table was created. Closed-reference OTU mapping was employed using the Greengenes database. Rarefaction was used to exclude samples with insufficient count of reads per sample. Sequences sharing 97% nucleotide sequence identity in the V2 region were binned into operational taxonomic units (97% ID OTUs). For beta-diversity, weighted unifrac measurements were plotted according to the two principal coordinates based on 1,000 reads per sample. The OTU tables used for our analyses are made accessible online.

microbiota = assay: Ang4 in-vitro culture of stool microbiota under anaerobic conditions; set-up: species or system mouse
Procedure: Murine Ang4 was expressed in E. coli and purified as previously described (Holloway et al, 2001). Stool pellets were collected and cultured in anaerobic conditions for 8 hours with rAng4, centrifuged and further analyzed using 16S rRNA sequencing.
Frozen fecal samples were processed for DNA isolation using the MoBio PowerSoil kit according to the manufacturer's instructions. For the 16S rRNA gene PCR amplification, ing of the purified fecal DNA was used for PCR amplification. […] The reads were then processed using the QIIME (Quantitative Insights Into Microbial Ecology, www(dot)qiime(dot)org) analysis pipeline as described (Caporaso et al., 2010; Elinav et al., 2011). In brief, fasta quality files and a mapping file indicating the barcode sequence corresponding to each sample were used as inputs, reads were split by samples according to the barcode, taxonomical classification was performed using the RDP-classifier, and an OTU table was created. […] Rarefaction was used to exclude samples with insufficient count of reads per sample. […] For beta-diversity, weighted unifrac measurements were plotted according to the two principal coordinates based on 1,000 reads per sample. […]

[3] = GF Nlrp6-/- mice, sterile administration
[4] = mice lacking NLRP6, ASC, or caspase-1/11

NCCCCN [putrescine]
IL-18 in colon explants (NLRP6 inflammasome): equally suppressed

IL-18: recombinant IL-18 (MBL, Cat#B004-2)
colitis severity (DSS colitis): diminished | colonoscopy score (DSS colitis): improved | weight loss (DSS colitis): reduced | levels of colonic AMPs (colonic AMPs [1]): restored normal levels | Ang4 (colonic AMPs [2]; [3]): induced | defect in secretion of mature IL-18 protein (colonic AMPs [2]; [3]): rescued this defect | levels of colonic AMPs (colonic AMPs [2]; WT GF mice, in-vivo administration): restored normal levels | AMP levels (colonic AMPs [2]; [4]): restored | IL-18 levels (colonic AMPs [2]; [4]): restored | microbiota configuration (intestinal microbiota; Asc- and Caspase-1/11-deficient mice): significant configuration changes | aberrant microbiota composition, beta- and alpha-diversity (intestinal microbiota; Caspase-1/11-/- mice): corrected | abundance of multiple commensal bacteria (intestinal microbiota; Caspase-1/11-/- mice, relative to WT levels): restored | microbial community composition (intestinal microbiota; Nlrp6-/- mice): marked compositional changes | microbiota composition (intestinal microbiota; WT mice): not affected | dominant transmission of the dysbiotic microbiota configuration (intestinal microbiota; WT recipients cohoused with inflammasome-deficient mice): prevented | UniFrac distance to cohousing partners (intestinal microbiota; grWT(Asc-/-) mice injected with IL-18): increased

B1: Ang4: Murine Ang4 expressed in E. coli and purified; antimicrobial peptide (protein, UniProt Q3TMQ6 25-144, looked up)
Angiogenin-4: QNERYEKFLRQHYDAKPNGRDDRYCESMMKERKLTSPCKDVNTFIHGTKKNIRAICGKKGSPYGENFRISNSPFQITTCTHSGASPRPPCGYRAFKDFRYIVIACEDGWPVHFDESFISP
beta- and alpha-diversity (microbiota; anaerobic in-vitro microbiome cultures of Asc-/- mice): partially restored | impact on overall community composition (microbiota; microbiota from Asc-/- mice compared with WT mice): greater
